Data: PubChem BioAssay (NCI)
Several values for one entry are separate records, joined by “and”; a condition that tells them apart may be missing. Identical values can stand only once.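 How tested: cells in 96-well plates exposed to compound for 48 hours at five concentrations. Here, GI50 denotes the concentration required for 50% inhibition of growth. At the TGI there is no net growth.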 Where a SMILES comes first, the peptide text is derived from it.

Experiments:
Test in all cases: NCI tumour cell line growth inhibition, 48 h
[1] = system: OVCAR-4 ovarian
[2] = system: M14 melanoma
[3] = system: NCI-H23 lung
[4] = system: HCT-116 colon
[5] = system: BT-549 breast
[6] = system: MDA-MB-435
[7] = system: SNB-75 CNS
[8] = system: NCI-H460 lung
[9] = system: OVCAR-5 ovarian
[10] = system: SK-MEL-2 melanoma

| Compound | TGI [1] | TGI [2] | TGI [3] | TGI [4] | TGI [5] | TGI [6] | TGI [7] | TGI [8] | TGI [9] | TGI [10] | GI50 [1] | GI50 [10] |
| --- | --- | --- | --- | --- | --- | --- | --- | --- | --- | --- | --- | --- |
| CN(C)CCCNc1c(O)c2c(c(O)c1Cl)C(=O)C=CC2=O | 2.82 µM | 2.9 µM | 3.22 µM | 5.1 µM | 2.94 µM | 4.33 µM | > 10 µM | 3.81 µM | 3 µM |  |  |  |
| COc1cc(NS(C)(=O)=O)ccc1NCc1cnc2ccc3[nH]c(C)ccc3c12 | > 100 µM | > 100 µM | > 100 µM | > 100 µM | > 100 µM | 80.4 µM | 78.4 µM | > 100 µM | > 100 µM | 52.3 µM |  |  |
| Cc1cc2nc3n[nH]c(N)c3nc2cc1C | > 100 µM | > 100 µM | > 100 µM | > 100 µM | > 100 µM | > 100 µM | 87.8 µM | > 100 µM | > 100 µM | > 100 µM |  |  |
| COc1ccc(/C=C2\C=Cc3ccccc32)cc1OC | > 100 µM | > 100 µM | > 100 µM | > 100 µM |  | > 100 µM | 82.2 µM | > 100 µM | > 100 µM | > 100 µM |  |  |
| CCN(CC)C(=S)SS(=O)(=O)c1ccccc1C(=O)O | > 100 µM | > 100 µM | > 100 µM | > 100 µM | > 100 µM | > 100 µM | > 100 µM | > 100 µM | > 100 µM | > 100 µM |  |  |
| CC1NC(=O)CNC(=O)CNC(=O)C(Cc2ccc(O)cc2)NC(=O)C(C(C)C)NC(=O)C(C)NC1=O (stereo not drawn) (cyclo(GGAAVY); configuration not given here) | > 100 µM and 22.7 µM |  | > 100 µM | > 100 µM |  |  | > 100 µM | > 100 µM | > 100 µM | > 100 µM | > 100 µM |  |
| Cc1ccc(S(=O)ON2CCC(C(=O)O)(c3ccccc3)CC2)cc1 (stereo not drawn) | > 100 µM | > 100 µM | > 100 µM | > 100 µM | > 100 µM | > 100 µM | > 100 µM | > 100 µM | > 100 µM | > 100 µM |  | > 100 µM |
| O=C(O)CC(C(=O)O)c1ccccc1[N+](=O)[O-] (stereo not drawn) | > 100 µM | > 100 µM | > 100 µM | > 100 µM | > 100 µM | > 100 µM | > 100 µM | > 100 µM | > 100 µM | > 100 µM |  |  |
| O=C(NN=C1CCN(Cc2ccccc2)CC1)C(O)(c1ccccc1)c1ccccc1 | > 100 µM | > 100 µM | > 100 µM | > 100 µM |  | > 100 µM | > 100 µM |  | > 100 µM |  |  |  |
| CCCCCCCCC[C@@H]1C[C@@H]2CCC3C(C(=O)OC)=C(C)NC(=N1)N32 (stereo partly drawn) | 25.4 µM | 21.8 µM | 16.3 µM | 17.3 µM | 24.4 µM | 6.04 µM | 19.8 µM | 16.3 µM | 35.6 µM | 26.5 µM |  |  |
| COc1ccc2c(c1)C(N)CC2=O (stereo not drawn) | > 100 µM | > 100 µM | > 100 µM | > 100 µM | > 100 µM | > 100 µM | > 100 µM |  | > 100 µM | 74.1 µM |  |  |
